This note sets out measurements from US12611404B2, “Aza-aryl 1H-pyrazol-1-yl benzene sulfonamides” (ChemoCentryx, Inc., priority 2012, dated 2026).

The first assay addresses T1, CCR(9) (Homo sapiens, UniProt P51686).
T1 construct: CCR(9)-expressing cells such as T cell line MOLT-4 cells; host or cells: MOLT-4 cells
T1 sequence (P51686 1-369): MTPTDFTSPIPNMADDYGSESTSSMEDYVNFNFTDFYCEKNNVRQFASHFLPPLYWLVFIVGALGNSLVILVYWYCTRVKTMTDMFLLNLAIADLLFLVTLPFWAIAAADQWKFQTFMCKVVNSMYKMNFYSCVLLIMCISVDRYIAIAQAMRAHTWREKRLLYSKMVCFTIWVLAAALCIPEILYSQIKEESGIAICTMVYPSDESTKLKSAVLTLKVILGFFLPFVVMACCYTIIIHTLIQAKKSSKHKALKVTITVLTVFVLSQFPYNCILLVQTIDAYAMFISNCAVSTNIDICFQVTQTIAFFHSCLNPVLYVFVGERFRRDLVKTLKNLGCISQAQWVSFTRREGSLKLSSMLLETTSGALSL
Description: calcium mobilization assay (FLIPR, MOLT-4 cells, hTECK). The following applies: read-out: CCR(9) Ca^2+. Format: cell-based. How it is done: In calcium signaling assays used to determine the ability of a compound to interfere with binding between a chemokine receptor and a known chemokine ligand, chemokine receptor-expressing cells (CCR(9)-expressing cells such as T cell line MOLT-4 cells) are first incubated with a compound of interest, such as a potential chemokine antagonist, at increasing concentrations. The cell number can be from 10^5 to 5×10^6 cells per well in a 96-well microtiter plate. The concentration of the compound being tested may range from 0 to 100 μM. After a period of incubation (which can range from 5 to 60 minutes), the treated cells are placed in a Fluorometric Imaging Plate Reader (FLIPR®) (available from Molecular Devices Corp., Sunnyvale, CA) according to the manufacturer's instruction. The FLIPR® system is well known to those skilled in the art as a standard method of performing assays. The cells are then stimulated with an appropriate amount of the chemokine ligand (TECK for CCR(9)) at 5-100 nM final concentration, and the signal of intracellular calcium increase (also called calcium flux) is recorded. The efficacy of a compound as an inhibitor of binding between the […] and the ligand can be calculated as an IC50 (the concentration needed to cause 50% inhibition in signaling) or IC90 (at 90% inhibition). […]
A cytoplasmic calcium mobilization assay was used to determine the efficacy of potential receptor antagonists at blocking the signals mediated through chemokine receptors, such as CCR(9). This assay was routinely performed using the Fluorescent Imaging Plate Reader (FLIPR, Molecular Devices). […] The chemokine agonist (i.e., hTECK), prepared in HBSS at a 5× concentration of the previously determined EC^50 concentration, was added to each well and resulting changes in the fluorescent intensity, indicative of chemokine receptor-mediated signaling, were recorded on the FLIPR.
On the technique in general: Calcium flux is commonly read through the fluorescence of an indicator in the cells.
Consider `Cc1cc(NS(=O)(=O)c2ccc(C(C)(C)C)cc2Cl)n(-c2cccc3ncccc23)n1`, for which the IC50 is under 0.1 µM.

Consider `CCc1cc(NS(=O)(=O)c2ccc(C(C)(C)C)cc2)n(-c2cccc3ncccc23)n1`, for which the IC50 was under 0.1 µM.

For `Cc1cc(NS(=O)(=O)c2ccc(C(C)(C)C)cc2)n(-c2ccc3cccnc3c2)n1`, the IC50 was under 0.1 µM.

For the next assay, the target named is T1, CCR(9). Description: serum chemotaxis (migration) assay, MOLT-4 cells in human serum, TECK. In kind it is cell-based. The following applies: read-out: A2. How it is done: In vitro cell chemotaxis assays can be performed (but are not limited to this format) using the 96-well microchamber (called ChemoTX™). The ChemoTX™ system is well known to those skilled in the art as a type of chemotactic/cell migration instrument. In this assay, CCR(9)-expressing cells (such as MOLT-4) are first incubated with a compound of interest, such as a possible CCR(9) antagonist at increasing concentrations. Typically, fifty thousand cells per well are used, but the amount can range from 10^3-10^6 cells per well. The chemokine ligand (for example, CCR(9) ligand TECK, typically at 50 nM (but can range from 5-100 nM)), is placed at the lower chamber and the migration apparatus is assembled. Twenty microliters of test compound-treated cells are then placed onto the membrane. Migration is allowed to take place at 37° C. for a period of time, typically 2.5 hours for CCR(9). At the end of the incubation, the number of cells that migrated across the membrane into the lower chamber is then quantified. The efficacy of a compound as an inhibitor of chemokine-mediated cell migration can be calculated as an IC50 (the concentration needed to reduce cell migration by 50%) or IC90 (for 90% inhibition).
MOLT-4 cells were obtained from the American Type Culture Collection (Manassas, VA) and cultured in RPMI tissue culture medium supplemented with 10% fetal calf serum (FCS) in a humidified 5% CO2 incubator at 37° C. Recombinant human chemokine proteins TECK was obtained from R&D Systems (Minneapolis, MN). ChemoTX® chemotaxis microchambers were purchased from Neuro Probe (Gaithersburg, MD). CyQUANT® cell proliferation kits were purchased from Molecular Probes (Eugene, Oregon). Calcium indicator dye Fluo-4 AM was purchased from Molecular Devices (Mountain View, CA).
A serum chemotaxis assay was used to determine the efficacy of potential receptor antagonists at blocking the migration mediated through chemokine receptors, such as CCR(9). This assay was performed using the ChemoTX® microchamber system with a 5-μm pore-sized polycarbonate membrane. MOLT-4 cells were collected by centrifugation at 400×g at room temperature, then suspended at 50 million/ml in human serum, containing 50 mM HEPES (final pH of 7.2). The compound being tested or an equivalent volume of its solvent (DMSO) was then added to the cell/serum mixture at a final DMSO concentration of 0.125% (v/v), and this mixture was then incubated together at 37° C. for one hour. Separately, recombinant human TECK was diluted with chemotaxis buffer (HBSS+0.1% BSA), generally spanning a range from 0.1 nM to 500 nM, after which 29 μl of diluted chemokine was placed in the lower wells of the ChemoTX® plate. The 5-μm (pore size) polycarbonate membrane was placed onto the plate, and 20 μL of the cell/compound mixture was transferred onto each well of the membrane. The plates were incubated at 37° C. for 90 minutes, after which the polycarbonate membranes were removed and 5 μl of the DNA-intercalating agent CyQUANT (Invitrogen, Carlsbad, CA) was added to the lower wells. The amount of fluorescence, corresponding to the number of migrated cells, was measured using a Spectrafluor Plus plate reader (TECAN, San Jose, CA).
The A2 values were calculated from the following equation, comparing the efficacy of the test compound with that of the DMSO-only control at equi-active chemokine levels: Log(A2)=log[drug(M)]−log [(A′/A)−1]
where A reflects the potency of the agonist in the absence of antagonist and A′ reflects the potency of the agonist in the presence of antagonist at a given concentration of drug ([drug(M)]).
On to `Cc1cc(NS(=O)(=O)c2ccc(C(C)(C)C)c(F)c2)n(-c2cccc3nc(N)ccc23)n1`, for which the IC50 is under 0.5 µM.

Turning to `CC(C)(C)c1ccc(S(=O)(=O)Nc2cc(C(F)F)nn2-c2cccc3ncccc23)cc1F`, the IC50 lay within 0.501 to 2.5 µM.

Take `Cc1cc(NS(=O)(=O)c2ccc(C(C)(C)C)c(F)c2)n(-c2ccc(N)c3ncccc23)n1`: the IC50 is 0.501 to 2.5 µM.
